Source: publication PMC7277793 (Biomolecules, 2020)
Where a name gives a salt, the structure may show the parent alone.

What was measured:
MARK4 [1] = molecular target: T1, MARK4 (Homo sapiens, UniProt Q96L34); assay: Isothermal titration calorimetry; format: binding; conditions: ITC, 25 °C, 20 µM MARK4; for Kd: 100 µM DP or 200 µM RT in syringe
T1 construct: made in house
T1 sequence (Q96L34 1-752): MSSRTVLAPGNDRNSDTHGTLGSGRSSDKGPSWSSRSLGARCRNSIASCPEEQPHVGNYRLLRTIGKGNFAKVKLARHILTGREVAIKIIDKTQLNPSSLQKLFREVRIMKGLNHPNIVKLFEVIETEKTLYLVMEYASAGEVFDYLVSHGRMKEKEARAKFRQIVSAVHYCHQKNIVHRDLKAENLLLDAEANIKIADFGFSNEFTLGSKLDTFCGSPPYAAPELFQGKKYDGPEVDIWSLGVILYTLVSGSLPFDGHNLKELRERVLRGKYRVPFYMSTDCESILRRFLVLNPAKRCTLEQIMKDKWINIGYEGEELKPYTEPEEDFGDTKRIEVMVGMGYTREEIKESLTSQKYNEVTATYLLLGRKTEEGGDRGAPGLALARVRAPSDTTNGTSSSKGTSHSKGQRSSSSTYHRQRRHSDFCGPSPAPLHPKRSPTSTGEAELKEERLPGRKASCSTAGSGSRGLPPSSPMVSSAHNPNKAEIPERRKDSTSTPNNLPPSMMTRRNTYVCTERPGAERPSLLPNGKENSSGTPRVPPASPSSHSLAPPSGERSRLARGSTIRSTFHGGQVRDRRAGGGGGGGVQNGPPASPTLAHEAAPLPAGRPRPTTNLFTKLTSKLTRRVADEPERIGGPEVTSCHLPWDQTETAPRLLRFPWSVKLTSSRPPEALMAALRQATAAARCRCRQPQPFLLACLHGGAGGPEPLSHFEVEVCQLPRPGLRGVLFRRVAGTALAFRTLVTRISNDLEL
Experimental: Isothermal titration calorimetry (ITC) measurements were carried out on a VP-ITC microcalorimeter (MicroCal, Inc, GE, MicroCal, Northampton, MA, USA) at 25 °C. All the solutions were degassed in thermovac for 20 min to remove air bubbles. For sample preparation, recombinant MARK4 was extensively dialyzed in 20 mM Tris buffer, pH 8.5. […] We used standard protocol to run the ITC in which the first injection was a false injection of 2 μL followed by injections of 10 μL of the ligands at a span of 260 s intervals into the sample cell. The stirring rate was maintained at 320 rpm. The obtained titration data were analyzed by Origin 8.0 software to estimate thermodynamic parameters such as stoichiometry of binding (n), enthalpy change (ΔH), an association constant (Ka).

MARK4 [2] = molecular target: T1, MARK4; assay: Fluorescence quenching binding study of MARK4 with DP and RT; conditions: for Kq (quenching rate constant): Kq=Ksv/τ0, τ0 2.7 × 10^−9 s; for Ksv (Stern−Volmer constant): MARK4 4 μM; for n (number of the binding site) / Kd: modified Stern−Volmer plot; for ΔG (change in Gibbs free energy): van't Hoff equation; for mode of fluorescence quenching of the MARK4 complex: from temperature dependency of Ksv and from Kq; for ΔH (change in enthalpy) / ΔS (change in entropy): van't Hoff plot over 293, 296, 298 K, same value printed in each temperature row; for Kd: K (binding constant)
From the text: The observed fluorescence intensities were corrected for the inner filter effect. Obtained data were fitted into the Stern−Volmer and modified Stern−Volmer equations to estimate Stern-Volmer constant (Ksv), binding constant (Ka), and the number of binding sites (n).
Equation (1) (van’t Hoff equation) was used to find the thermodynamic parameters such as changes in enthalpy, entropy, and Gibbs free energy associated with the reaction. (1) ΔG=−RTLnK=ΔH−TΔS
K is the obtained binding constant, ΔH is the associated enthalpy change and ΔG is the associated free Gibbs energy change. ΔS denotes the associated entropy change with reaction, and R is the universal gas constant.
The slope of the van’t Hoff plot (LnK on Y-axis against 1/T on the X-axis) gives the value of −ΔH/R, and the intercept giving the value of ΔS/R.
The intrinsic fluorescence of protein due to tryptophan is often used to get an insight into the ligand binding to the protein because binding often leads to changes in the surrounding environment around tryptophan residues which corresponds to observed changes in fluorescence. The recombinant MARK4 was expressed and purified to carry out all binding studies.
Ksv was obtained from the slope of this plot at a fixed intercept after linear regression using the Stern−Volmer equation (Equation (2)). (2) F0/F=1+Ksv[C]
The SV plot of combined quenching (both static and dynamic) is characteristically an upward curvature while the linear Stern−Volmer plot depicts that only one mode of quenching was operative. […] The linear plot and upward curvature are not enough to define the quenching type. […] Equation (3) uses Ksv and τo (average integral fluorescence lifetime of tryptophan) (2.7 × 10^−9 s) to find biomolecular quenching rate constant (Kq) (3) Kq=Ksv/τ0
To get insights into other binding parameters, Equation (4) was used. This equation gives binding constant (K) and the number of binding sites (n). (4) logF0−F/F=logK+nlog[C]

MARK4 [3] = molecular target: T1, MARK4; assay: ATPase inhibition assay (malachite green, BIOMOL reagent); format: biochemical; conditions: MARK4 4 μM, ligand 0–20 μM, pre-incubated 60 min, 200 μM ATP, 25 °C; AAT Bioquest calculator
Experimental: The activity of MARK4 was measured using standard malachite green (BIOMOL® reagent, Enzo Life Sciences) microtitre-plate assay using previously-published protocols [17, 40].
Initially, MARK4 (4 μM) was pre-incubated with increasing concentrations of ligands at room temperature for 60 min in a 96-well plate. Subsequently, 200 μM of freshly-prepared ATP was mixed to the reaction mixture and incubated for 15–20 min at 25 °C. At the end of this time, BIOMOL® reagent was added and kept for 15–20 min. The intensity of color was spectrophotometrically measured at 620 nm.

Compound	∆S1 (MARK4 [1])	∆S2 (MARK4 [1])	TΔS (MARK4 [2]; 293 K)	Kq (quenching rate constant) (MARK4 [2]; 293 K)	n (number of the binding site) (MARK4 [2]; 293 K)	ΔG (change in Gibbs free energy) (MARK4 [2]; 293 K)	TΔS (MARK4 [2]; 296 K)	Kq (quenching rate constant) (MARK4 [2]; 296 K)	n (number of the binding site) (MARK4 [2]; 296 K)	ΔG (change in Gibbs free energy) (MARK4 [2]; 296 K)	TΔS (MARK4 [2]; 298 K)	Kq (quenching rate constant) (MARK4 [2]; 298 K)	n (number of the binding site) (MARK4 [2]; 298 K)	mode of fluorescence quenching of the MARK4 complex (MARK4 [2])	ΔH (change in enthalpy) (MARK4 [2])	ΔS (change in entropy) (MARK4 [2])	other results
COc1cc2c(cc1OC)C(=O)C(CC1CCN(Cc3ccccc3)CC1)C2 (stereo not drawn) [DP, Donepezil]	51.2 cal/mol/deg	-207 cal/mol/deg	-126.79 kcal/mol	6.85 10^14 M^−1 s^−1	1.66	-10.70 kcal/mol	-128.09 kcal/mol	5.81 10^14 M^−1 s^−1	1.311	-9.40 kcal/mol	-128.95 kcal/mol	5.03 10^14 M^−1 s^−1	0.1	static mode	-137.5 kcal/mol	−432.749 cal mol^−1K^−1	∆S3 (MARK4 [1]): 368 cal/mol/deg; ∆S4 (MARK4 [1]): -327 cal/mol/deg; Ksv (Stern−Volmer constant) (MARK4 [2]; 293 K, DP 0−200 nM): 18.5 10^5 M^−1; Ksv (Stern−Volmer constant) (MARK4 [2]; 296 K, DP 0−200 nM): 15.7 10^5 M^−1; Ksv (Stern−Volmer constant) (MARK4 [2]; 298 K, DP 0−200 nM): 13.6 10^5 M^−1
CCN(C)C(=O)Oc1cccc([C@H](C)N(C)C)c1 [RT, rivastigmine tartrate]	31.1 cal/mol/deg	-700 cal/mol/deg	-133.48 kcal/mol	1.25 10^13 M^−1 s^−1	1.66	-10.74 kcal/mol	-135.76 kcal/mol	1.44 10^13 M^−1 s^−1	1.311	-8.46 kcal/mol	-138.04 kcal/mol	2.14 10^13 M^−1 s^−1	0.94	combination of static and dynamic modes of quenching	-144.23 kcal/mol	−455.78 cal mol^−1K^−1	Kd (MARK4 [1]; read-out: Ka1 (association constant) (converted)): 9.8 µM; Kd (MARK4 [1]; read-out: Ka2 (association constant) (converted)): 8.55 µM; Kd (MARK4 [1]; read-out: Ka3 (association constant) (converted)): 5 µM; Ksv (Stern−Volmer constant) (MARK4 [2]; 293 K, RT 0−9 µM): 3.4 10^4 M^−1; Ksv (Stern−Volmer constant) (MARK4 [2]; 296 K, RT 0−9 µM): 3.9 10^4 M^−1; Ksv (Stern−Volmer constant) (MARK4 [2]; 298 K, RT 0−9 µM): 5.8 10^4 M^−1; ΔG (change in Gibbs free energy) (MARK4 [2]; 298 K): -6.18 kcal/mol; Kd (MARK4 [2]; 293 K): 0.00952 µM; Kd (MARK4 [2]; 296 K): 0.625 µM; Kd (MARK4 [2]; 298 K): 50 µM; IC50 (MARK4 [3]): 6.74 µM
